In US9453014B2, “Cyclic amide derivatives as inhibitors of 11-β-hydroxysteroid dehydrogenase and uses thereof” (CONNEXIOS LIFE SCIENCES PVT. LTD., priority 2011, dated 2016) one finds IC50 data, which are given here for 23 compounds.

For the assay, the target named is T1, human full length HSD11 β 1 (Homo sapiens, UniProt P28845).
T1 construct: transient expression of human full length HSD11 β 1 expression vector; host or cells: CHO cells (transient transfection)
The assay can be described thus: In Vitro HSD11β1 Inhibition Assay. In kind it is cell-based. To be noted: CHO cells transiently expressing human HSD11β1; 200 nM cortisone+500 uM NADPH overnight; cortisone to cortisol by LC/MS-MS; read-out: 11βHSD1 (IC50). The procedure:
In Vitro HSD11β1 Inhibition Assay:
CHO cells were maintained in Dulbecco's modified Eagle's medium/nutrient mixture F-12 containing 5% fetal bovine serum (v/v) and 2 mM glutamine. Cells were cultured at 37° C. with 5% CO2. For transient expression of human full length HSD11 β 1 expression vector (OriGene Technologies), cells were seeded at a density of 2×10^5 cells/well in a 6-well plate. Transfection was done using Turbofectin8 reagent (OriGene Technologies), according to the protocol provided with the reagent. After 24 hours post-transfection, cells were trypsinized and pooled together before they were re-seeding to 96-well plate at a density of 40000 cells/well. 24 hours after re-seeding, cells were incubated with 200 nM cortisone+500 uM NADPH (or along with small molecule inhibitors) overnight. The enzymatic activity or inhibition of enzyme activity was measured by estimating the conversion of cortisone to cortisol by LC/MS-MS method. The IC50 in nM was calculated from an 8 point log scale of concentration versus inhibition.

Each structure is given as a SMILES string. Bounds are passed on as bounds.

T1 sequence (P28845 whole entry): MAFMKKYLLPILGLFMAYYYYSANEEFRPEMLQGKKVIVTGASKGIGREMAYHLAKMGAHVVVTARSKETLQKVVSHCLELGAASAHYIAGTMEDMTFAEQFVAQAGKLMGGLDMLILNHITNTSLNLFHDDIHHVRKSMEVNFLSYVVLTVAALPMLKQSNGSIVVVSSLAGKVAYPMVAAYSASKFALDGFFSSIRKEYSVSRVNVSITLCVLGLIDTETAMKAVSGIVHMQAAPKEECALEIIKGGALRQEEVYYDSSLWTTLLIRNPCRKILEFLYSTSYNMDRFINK

Regarding `Cn1cc(CCC(=O)N2CCO[C@@H]3CCCC[C@H]32)c2ccccc21` (relative stereo) [Compound 63, 3-(1-methyl-1H-indol-3-yl)-1-[(trans-4a,8a)-octahydro-4H-1,4-benzoxazin-4-yl]propan-1-one], the IC50 (commonly the point on the concentration scale where inhibition reaches its midpoint) is above 250 nM.
As for `Cc1cccc2c1c(CCC(=O)N1CCO[C@@H]3CCCC[C@@H]31)cn2C` (relative stereo) [Compound 66, 3-(1,4-dimethyl-1H-indol-3-yl)-1-[cis-(4a,8a)-octahydro-4H-1,4-benzoxazin-4-yl]propan-1-one], the figure is below 100 nM; as for `O=C(CCc1nc2ccccc2s1)N1CCO[C@@H]2CCCC[C@H]21` (relative stereo) [Example 79, 3-(1,3-benzothiazol-2-yl)-1-[trans-(4a,8a)-octahydro-4H-1,4-benzoxazin-4-yl]propan-1-one], above 250 nM.
`O=C(CCc1c[nH]c2ccccc12)N1CCCC2CCCCC21` (single isomer, unassigned) [Compound 52, 3-(1H-indol-3-yl)-1-(octahydroquinolin-1(2H)-yl)propan-1-one]: the concentration for half-maximal inhibition (IC50) was above 250 nM.
As for `O=C(CCc1c[nH]c2ccccc12)N1CCCC2CCCCC21` (single isomer, unassigned) [Compound 53, 3-(1H-indol-3-yl)-1-(octahydroquinolin-1(2H)-yl)propan-1-one], the half-maximal inhibitory concentration (IC50) was below 100 nM.
As for `CC12CCCCC1N(C(=O)CCc1c[nH]c3ccccc13)CCC2` (single isomer, unassigned) [Compound 55, 3-(1H-indol-3-yl)-1-(4a-methyloctahydroquinolin-1(2H)-yl)propan-1-one], the figure is below 100 nM.
As for `CC12CCCCC1N(C(=O)CCc1c[nH]c3ccccc13)CCC2` (single isomer, unassigned) [Compound 56, 3-(1H-indol-3-yl)-1-(4a-methyloctahydroquinolin-1(2H)-yl)propan-1-one], the figure is 150 to 200 nM; as for `Cc1cccc2c1c(CCC(=O)N1CCO[C@@H]3CCCC[C@H]31)cn2C` (single isomer, unassigned) [Compound 62, 3-(1,4-dimethyl-1H-indol-3-yl)-1-[(trans-4a,8a)-octahydro-4H-1,4-benzoxazin-4-yl]propan-1-one], above 250 nM.
Then `Cc1cccc2c1c(CCC(=O)N1CCO[C@@H]3CCCC[C@H]31)cn2C` (single isomer, unassigned) [Compound 65, 3-(1,4-dimethyl-1H-Indol-3-yl)-1-[trans-(4a,8a)-octahydro-4H-1,4-benzoxazin-4-yl]propan-1-one], with above 250 nM.
As for `CC(CC(=O)N1CCCC2C(C(=O)O)CCCC21)c1c[nH]c2cccc(C3CC3)c12` (single isomer, unassigned) [Compound 195, 1-[3-(4-cyclopropyl-1H-indol-3-yl)butanoyl]decahydroquinoline-5-carboxylic acid], the IC50 was below 100 nM.
Take `CC(CC(=O)N1CCCC2C(C(=O)O)CCCC21)c1c[nH]c2cccc(C3CC3)c12` (single isomer, unassigned) [Compound 196, 1-[3-(4-cyclopropyl-1H-indol-3-yl)butanoyl]decahydroquinoline-5-carboxylic acid]: the half-inhibitory concentration (IC50) is below 100 nM.
For `CC(CC(=O)N1CCCC2C(C(=O)O)CCCC21)c1c[nH]c2cccc(C3CC3)c12` (single isomer, unassigned) [Compound 198, 1-[3-(4-cyclopropyl-1H-indol-3-yl)butanoyl]decahydroquinoline-5-carboxylic acid], the IC50 is 100 to 150 nM.
Then `CC(CC(=O)N1CCC[C@H]2[C@H](C(=O)O)CCC[C@@H]21)c1c[nH]c2cccc(C3CC3)c12` (single isomer, unassigned) [Compound 199, 1-[3-(4-cyclopropyl-1H-indol-3-yl)butanoyl]decahydroquinoline-5-carboxylic acid], with below 100 nM.
Then `CC(CC(=O)N1CCCC2C(C(=O)O)CCCC21)c1c[nH]c2cccc(C3CC3)c12` (single isomer, unassigned) [Compound 200, 1-[3-(4-cyclopropyl-1H-Indol-3-yl)butanoyl]decahydroquinoline-5-carboxylic acid], with below 100 nM; and `CC(CC(=O)N1CCCC2C(C(=O)O)CCCC21)c1cn(C)c2cccc(C3CC3)c12` (single isomer, unassigned) [Compound 212, 1-[3-(4-cyclopropyl-1-methyl-1H-indol-3-yl)butanoyl]decahydroquinoline-5-carboxylic acid], with above 250 nM; and `CC(CC(=O)N1CCCC2C(C(=O)O)CCCC21)c1cn(C)c2cccc(C3CC3)c12` (single isomer, unassigned) [Compound 213, 1-[3-(4-cyclopropyl-1-methyl-1H-indol-3-yl)butanoyl]decahydroquinoline-5-carboxylic acid], with above 250 nM.
Then `CC(CC(=O)N1CCCC2C(C(=O)O)CCCC21)c1cn(C)c2cccc(C3CC3)c12` (single isomer, unassigned) [Compound 214, 1-[3-(4-cyclopropyl-1-methyl-1H-indol-3-yl)butanoyl]decahydroquinoline-5-carboxylic acid], with below 100 nM; and `O=C(O)C1CCCC2C1CCCN2C(=O)CC(c1cccs1)c1c[nH]c2cccc(Cl)c12` (single isomer, unassigned) [Compound 218, 1-[3-(4-chloro-1H-indol-3-yl)-3-(thiophen-2-yl)propanoyl]decahydroquinoline-5-carboxylic acid], with below 100 nM.
With `O=C(O)C1CCCC2C1CCCN2C(=O)CC(c1cccs1)c1c[nH]c2cccc(Cl)c12` (single isomer, unassigned) [Compound 219, 1-[3-(4-chloro-1H-indol-3-yl)-3-(thiophen-2-yl)propanoyl]decahydroquinoline-5-carboxylic acid], the half-maximal inhibitory concentration (IC50) was above 250 nM.
As for `CC(CC(=O)N1CCCC2C(C(=O)O)CCCC21)c1c[nH]c2cccc(-c3ccco3)c12` (single isomer, unassigned) [Compound 223, 1-{3-[4-(furan-2-yl)-1H-indol-3-yl]butanoyl}decahydroquinoline-5-carboxylic acid], the figure is 100 to 150 nM; as for `CC(CC(=O)N1CCCC2C(C(=O)O)CCCC21)c1c[nH]c2cccc(-c3ccco3)c12` (single isomer, unassigned) [Compound 224, 1-{3-[4-(furan-2-yl)-1H-indol-3-yl]butanoyl}decahydroquinoline-5-carboxylic acid], below 100 nM; as for `O=C(O)C1CCN(C(=O)CC(c2ccc(F)cc2)c2c[nH]c3cccc(F)c23)C2CCCCC12` (single isomer, unassigned) [Compound 225, 1-[3-(4-fluoro-1H-indol-3-yl)-3-(4-fluorophenyl)propanoyl]decahydroquinoline-4-carboxylic acid], below 100 nM.
Then `O=C(O)C1CCN(C(=O)CC(c2ccc(F)cc2)c2c[nH]c3cccc(F)c23)C2CCCCC12` (single isomer, unassigned) [Compound 226, 1-[3-(4-fluoro-1H-indol-3-yl)-3-(4-fluorophenyl)propanoyl]decahydroquinoline-4-carboxylic acid], with above 250 nM.
